Results published in ChEMBL document CHEMBL1255382, “Genetic mapping of targets mediating differential chemical phenotypes in Plasmodium falciparum” (Nat Chem Biol, 2009).
Structures can show the parent of a compound that is named as a salt.

Columns and labels:
Plasmodium falciparum [1] = assay: microbe, parasite or virus in culture; format: functional, organism-based, W2; details: for IC50: Plasmodium falciparum, W2, 72 h
Description: Antiplasmodial activity against Plasmodium falciparum W2 after 72 hrs by SYBR green assay

Plasmodium falciparum [2] = assay: microbe, parasite or virus in culture; details: HB3, 72 h
Description: Antiplasmodial activity against Plasmodium falciparum HB3 after 72 hrs by SYBR green assay

Plasmodium falciparum [3] = assay: microbe, parasite or virus in culture; format: functional, organism-based; details: GB4, 72 h
Description: Antiplasmodial activity against Plasmodium falciparum GB4 after 72 hrs by SYBR green assay

Plasmodium falciparum [4] = assay: microbe, parasite or virus in culture; format: functional, organism-based; details: 7G8, 72 h
Description: Antiplasmodial activity against Plasmodium falciparum 7G8 after 72 hrs by SYBR green assay

Plasmodium falciparum [5] = assay: microbe, parasite or virus in culture; details: D10, 72 h
Description: Antiplasmodial activity against Plasmodium falciparum D10 after 72 hrs by SYBR green assay

Plasmodium falciparum [6] = assay: microbe, parasite or virus in culture; details: Dd2, 72 h
Description: Antiplasmodial activity against Plasmodium falciparum Dd2 after 72 hrs by SYBR green assay

Plasmodium falciparum [7] = assay: microbe, parasite or virus in culture; format: functional, organism-based; details: 3D7, 72 h
Description: Antiplasmodial activity against Plasmodium falciparum 3D7 after 72 hrs by SYBR green assay

Plasmodium falciparum [8] = assay: microbe, parasite or virus in culture; details: KH7, 72 h
Description: Antiplasmodial activity against Plasmodium falciparum KH7 after 72 hrs by SYBR green assay

Plasmodium falciparum [9] = assay: microbe, parasite or virus in culture; details: JC9, 72 h
Description: Antiplasmodial activity against Plasmodium falciparum JC9 after 72 hrs by SYBR green assay

Plasmodium falciparum [10] = assay: microbe, parasite or virus in culture; details: GB4, 72 h
Description: Antiplasmodial activity against Plasmodium falciparum GB4 harboring polymorphic DHFR after 72 hrs by SYBR green assay

Plasmodium falciparum [11] = assay: microbe, parasite or virus in culture; details: JH6, 72 h
Description: Antiplasmodial activity against Plasmodium falciparum JH6 after 72 hrs by SYBR green assay

Plasmodium falciparum [12] = assay: microbe, parasite or virus in culture; details: 7G8, 72 h
Description: Antiplasmodial activity against Plasmodium falciparum 7G8 harboring polymorphic DHFR after 72 hrs by SYBR green assay

Plasmodium falciparum [13] = assay: microbe, parasite or virus in culture; details: WE2, 72 h
Description: Antiplasmodial activity against Plasmodium falciparum WE2 after 72 hrs by SYBR green assay

Plasmodium falciparum [14] = assay: microbe, parasite or virus in culture; details: W2, 72 h
Description: Antiplasmodial activity against Plasmodium falciparum W2 harboring polymorphic DHFR after 72 hrs by SYBR green assay

Plasmodium falciparum [15] = assay: microbe, parasite or virus in culture; details: HB3 pDT, 72 h
Description: Antiplasmodial activity against transgenic Plasmodium falciparum HB3 pDT harboring polymorphic DHFR after 72 hrs by SYBR green assay

Plasmodium falciparum [16] = assay: microbe, parasite or virus in culture; details: NIC, 72 h
Description: Antiplasmodial activity against Plasmodium falciparum NIC after 72 hrs by SYBR green assay

Plasmodium falciparum [17] = assay: microbe, parasite or virus in culture; details: JON, 72 h
Description: Antiplasmodial activity against Plasmodium falciparum JON after 72 hrs by SYBR green assay

Plasmodium falciparum [18] = assay: microbe, parasite or virus in culture; details: XE7, 72 h
Description: Antiplasmodial activity against Plasmodium falciparum XE7 after 72 hrs by SYBR green assay

Plasmodium falciparum [19] = assay: microbe, parasite or virus in culture; details: D10, 72 h; remark: listed apart in the source
Description: Antiplasmodial activity against Plasmodium falciparum D10 harboring polymorphic DHFR after 72 hrs by SYBR green assay

Plasmodium falciparum [20] = assay: microbe, parasite or virus in culture; details: LA10, 72 h
Description: Antiplasmodial activity against Plasmodium falciparum LA10 after 72 hrs by SYBR green assay

Plasmodium falciparum [21] = assay: microbe, parasite or virus in culture; details: XF12, 72 h
Description: (§1) Antiplasmodial activity against Plasmodium falciparum XF12 after 72 hrs by SYBR green assay

Plasmodium falciparum [22] = assay: microbe, parasite or virus in culture; details: DEV, 72 h
Description: Antiplasmodial activity against Plasmodium falciparum DEV after 72 hrs by SYBR green assay

Plasmodium falciparum [23] = assay: microbe, parasite or virus in culture; details: LC12, 72 h
Description: Antiplasmodial activity against Plasmodium falciparum LC12 after 72 hrs by SYBR green assay

Plasmodium falciparum [24] = test system: Plasmodium falciparum
Description: as §1

Plasmodium falciparum [25] = assay: microbe, parasite or virus in culture; details: HB3, 72 h; remark: listed apart in the source
Description: Antiplasmodial activity against Plasmodium falciparum HB3 harboring polymorphic DHFR after 72 hrs by SYBR green assay

Plasmodium falciparum [26] = assay: microbe, parasite or virus in culture; details: Dd2, 72 h; remark: listed apart in the source
Description: Antiplasmodial activity against transgenic Plasmodium falciparum Dd2 pDT harboring polymorphic DHFR after 72 hrs by SYBR green assay

Plasmodium falciparum [27] = assay: microbe, parasite or virus in culture; details: NF10, 72 h
Description: Antiplasmodial activity against Plasmodium falciparum NF10 after 72 hrs by SYBR green assay

Plasmodium falciparum [28] = assay: microbe, parasite or virus in culture; details: QF5, 72 h
Description: Antiplasmodial activity against Plasmodium falciparum QF5 after 72 hrs by SYBR green assay

Plasmodium falciparum [29] = assay: microbe, parasite or virus in culture; details: XB3, 72 h
Description: Antiplasmodial activity against Plasmodium falciparum XB3 after 72 hrs by SYBR green assay

Plasmodium falciparum [30] = assay: microbe, parasite or virus in culture; details: JF11, 72 h
Description: Antiplasmodial activity against Plasmodium falciparum JF11 after 72 hrs by SYBR green assay

Plasmodium falciparum [31] = assay: microbe, parasite or virus in culture; details: D2, 72 h
Description: Antiplasmodial activity against Plasmodium falciparum D2 after 72 hrs by SYBR green assay

Plasmodium falciparum [32] = assay: microbe, parasite or virus in culture; details: WF12, 72 h
Description: Antiplasmodial activity against Plasmodium falciparum WF12 after 72 hrs by SYBR green assay

Plasmodium falciparum [33] = assay: microbe, parasite or virus in culture; details: JB8, 72 h
Description: Antiplasmodial activity against Plasmodium falciparum JB8 after 72 hrs by SYBR green assay

Plasmodium falciparum [34] = assay: microbe, parasite or virus in culture; details: DAN, 72 h
Description: Antiplasmodial activity against Plasmodium falciparum DAN after 72 hrs by SYBR green assay

Plasmodium falciparum [35] = assay: microbe, parasite or virus in culture; details: JB12, 72 h
Description: Antiplasmodial activity against Plasmodium falciparum JB12 after 72 hrs by SYBR green assay

Plasmodium falciparum [36] = assay: microbe, parasite or virus in culture; details: AUD, 72 h
Description: Antiplasmodial activity against Plasmodium falciparum AUD after 72 hrs by SYBR green assay

Plasmodium falciparum [37] = assay: microbe, parasite or virus in culture; details: KC2, 72 h
Description: Antiplasmodial activity against Plasmodium falciparum KC2 after 72 hrs by SYBR green assay

Plasmodium falciparum [38] = assay: microbe, parasite or virus in culture; details: AL2, 72 h
Description: Antiplasmodial activity against Plasmodium falciparum AL2 after 72 hrs by SYBR green assay

Plasmodium falciparum [39] = assay: microbe, parasite or virus in culture; details: KA6, 72 h
Description: Antiplasmodial activity against Plasmodium falciparum KA6 after 72 hrs by SYBR green assay

Plasmodium falciparum [40] = assay: microbe, parasite or virus in culture; details: Dd2, 72 h; remark: listed apart in the source
Description: Antiplasmodial activity against Plasmodium falciparum Dd2 harboring polymorphic DHFR after 72 hrs by SYBR green assay

Plasmodium falciparum [41] = assay: microbe, parasite or virus in culture; details: WC4, 72 h
Description: Antiplasmodial activity against Plasmodium falciparum WC4 after 72 hrs by SYBR green assay

Plasmodium falciparum [42] = assay: microbe, parasite or virus in culture; details: XG10, 72 h
Description: Antiplasmodial activity against Plasmodium falciparum XG10 after 72 hrs by SYBR green assay

Plasmodium falciparum [43] = assay: microbe, parasite or virus in culture; details: KC5, 72 h
Description: Antiplasmodial activity against Plasmodium falciparum KC5 after 72 hrs by SYBR green assay

Plasmodium falciparum [44] = assay: microbe, parasite or virus in culture; details: JC3, 72 h
Description: Antiplasmodial activity against Plasmodium falciparum JC3 after 72 hrs by SYBR green assay

Plasmodium falciparum [45] = assay: microbe, parasite or virus in culture; details: TF1, 72 h
Description: Antiplasmodial activity against Plasmodium falciparum TF1 after 72 hrs by SYBR green assay

Plasmodium falciparum [46] = assay: microbe, parasite or virus in culture; details: KB8, 72 h
Description: Antiplasmodial activity against Plasmodium falciparum KB8 after 72 hrs by SYBR green assay

Plasmodium falciparum [47] = assay: microbe, parasite or virus in culture; details: XD8, 72 h
Description: Antiplasmodial activity against Plasmodium falciparum XD8 after 72 hrs by SYBR green assay

Plasmodium falciparum [48] = assay: Antiplasmodial activity against Plasmodium falciparum CDY harboring modified mdr1 protein after 72 hrs by SYBR green assay in presence of 0.8 uM P-gp inhibitor verapamil; format: functional, organism-based; details: MDR1, 72 h

For CCCNC[C@H](O)COc1ccccc1C(=O)CCc1ccccc1, which IC50 (Plasmodium falciparum [1]) is on record?
The IC50 was 0.28 µM.

For CCN(CC)CCNC(=O)c1cc(Cl)c(N)cc1OC.Cl, which pIC25 (Plasmodium falciparum [1]) is on record?
Its pIC25 is 4.9.

How did the IC50 (Plasmodium falciparum [2]) turn out when Nc1ccc(-c2nc3ccc(-c4nc5ccc(N)cc5[nH]4)cc3[nH]2)cc1 was run?
Its IC50 is 0.83 µM.

And the IC50 (Plasmodium falciparum [3])?
Its IC50 is 0.74 µM.

What about the IC50 (Plasmodium falciparum [4]) of the same compound?
The IC50 was 0.52 µM.

What about the IC50 (Plasmodium falciparum [5]) of the same compound?
The IC50 was 0.74 µM.

And the IC50 (Plasmodium falciparum [6])?
The IC50 was 1 µM.

And the IC50 (Plasmodium falciparum [1])?
The IC50 was 0.22 µM.

What about the IC50 (Plasmodium falciparum [7]) of the same compound?
The IC50 was 0.28 µM.

Which results are given for Nc1nc(N)c2nc(-c3ccccc3)c(N)nc2n1?
IC50 (Plasmodium falciparum [8]): 15 µM; IC50 (Plasmodium falciparum [9]): 43.7 µM; IC50 (Plasmodium falciparum [10]): 5.3 µM; IC50 (Plasmodium falciparum [11]): 64.8 µM; IC50 (Plasmodium falciparum [12]): 154 µM; IC50 (Plasmodium falciparum [13]): 44.6 µM; IC50 (Plasmodium falciparum [14]): 95 µM; IC50 (Plasmodium falciparum [15]): 95 µM; IC50 (Plasmodium falciparum [16]): 11.2 µM; IC50 (Plasmodium falciparum [17]): 3.29 µM; IC50 (Plasmodium falciparum [18]): 18.1 µM; IC50 (Plasmodium falciparum [19]): 70 µM; IC50 (Plasmodium falciparum [20]): 5.59 µM; IC50 (Plasmodium falciparum [21]): 17.1 µM; IC50 (Plasmodium falciparum [22]): 60.5 µM; IC50 (Plasmodium falciparum [23]): 50.1 µM; IC50 (Plasmodium falciparum [4]): 51.7 µM; IC50 (Plasmodium falciparum [24]): 17.1 µM; IC50 (Plasmodium falciparum [25]): 176 µM; IC50 (Plasmodium falciparum [26]): 4 µM; IC50 (Plasmodium falciparum [27]): 75.1 µM; IC50 (Plasmodium falciparum [28]): 3.54 µM; IC50 (Plasmodium falciparum [29]): 57 µM; IC50 (Plasmodium falciparum [30]): 5.11 µM; IC50 (Plasmodium falciparum [31]): 22.2 µM; IC50 (Plasmodium falciparum [32]): 5.83 µM; IC50 (Plasmodium falciparum [33]): 49.4 µM; IC50 (Plasmodium falciparum [34]): 69.5 µM; IC50 (Plasmodium falciparum [35]): 65.1 µM; IC50 (Plasmodium falciparum [36]): 54.2 µM; IC50 (Plasmodium falciparum [37]): 60.4 µM; IC50 (Plasmodium falciparum [38]): 81.8 µM; IC50 (Plasmodium falciparum [39]): 5.19 µM; IC50 (Plasmodium falciparum [40]): 141 µM; IC50 (Plasmodium falciparum [41]): 52.5 µM; IC50 (Plasmodium falciparum [42]): 8.13 µM; IC50 (Plasmodium falciparum [43]): 73.5 µM; IC50 (Plasmodium falciparum [44]): 4.26 µM; IC50 (Plasmodium falciparum [45]): 8.82 µM; IC50 (Plasmodium falciparum [46]): 56.3 µM; IC50 (Plasmodium falciparum [47]): 59.8 µM

Which IC50 (Plasmodium falciparum [48]) does the source give for CN1C[C@H](C(=O)N[C@]2(C)O[C@@]3(O)[C@@H]4CCCN4C(=O)[C@H](Cc4ccccc4)N3C2=O)C[C@@H]2c3cccc4[nH]cc(c34)C[C@H]21 (stereo in doubt; 1) [DIHYDROERGOTAMINE MESYLATE] here?
Its IC50 is 0.022 µM.

For CC[C@@]1(O)C(=O)OCc2c1cc1n(c2=O)Cc2cc3ccccc3nc2-1 [CAMPTOTHECIN], which IC50 (Plasmodium falciparum [2]) is on record?
The IC50 was 0.89 µM.

And the IC50 (Plasmodium falciparum [3])?
The IC50 was 0.89 µM.

And the IC50 (Plasmodium falciparum [4])?
Its IC50 is 1.41 µM.

And the IC50 (Plasmodium falciparum [5])?
The IC50 was 1.12 µM.

What about the IC50 (Plasmodium falciparum [6]) of the same compound?
The IC50 was 1.32 µM.

And the IC50 (Plasmodium falciparum [1])?
The IC50 was 0.56 µM.

What about the IC50 (Plasmodium falciparum [7]) of the same compound?
The IC50 was 0.83 µM.

Which IC50 (Plasmodium falciparum [2]) does the source give for Cc1cc(N)c2ccccc2[n+]1CCCCCCCCCC[n+]1c(C)cc(N)c2ccccc21 [DEQUALINIUM CHLORIDE] here?
The IC50 was 0.1 µM.

And the IC50 (Plasmodium falciparum [5])?
The IC50 was 0.1 µM.

Which results are given for COc1cc(Cc2cnc(N)nc2N)cc(OC)c1OC [TRIMETHOPRIM]?
IC50 (Plasmodium falciparum [10]): 4.1 µM; IC50 (Plasmodium falciparum [12]): 194 µM; IC50 (Plasmodium falciparum [15]): 117 µM; IC50 (Plasmodium falciparum [25]): 158 µM; IC50 (Plasmodium falciparum [40]): 169 µM
